Assay results: ChEMBL document CHEMBL3046498, “Weed control efficacy and winter wheat safety of a novel herbicide HW02” (Crop Prot, 2013)
Activity calls are given as the source filed them. The rule behind the calls is not given here.

Tests used:
Triticum aestivum [1] = test: Toxicity against Winter Triticum aestivum (wheat) cultivar Dongmai 12 assessed as 1000-grain weight at 450 g ai/h applied at 3-leaf stage of crop (reference value: 42.6 gms); assay type: organism-based; conditions: in vivo, other
Triticum aestivum [2] = test: Toxicity against Winter Triticum aestivum (wheat) cultivar Dongmai 12 assessed as spike numbers at 900 g ai/h applied at 3-leaf stage of crop (reference value: 482.4/m'2); assay type: organism-based; conditions: in vivo, other
Triticum aestivum [3] = test: Toxicity against Winter Triticum aestivum (wheat) cultivar Dongmai 12 assessed as grain yield at 525 g ai/h; assay type: organism-based; conditions: in vivo
Triticum aestivum [4] = test: Toxicity against Winter Triticum aestivum (wheat) cultivar Dongmai 12 assessed as plant height at 450 g ai/h applied at 3-leaf stage of crop (reference value: 72.7 cm); assay type: organism-based; conditions: in vivo, other
Triticum aestivum [5] = test: Toxicity against Winter Triticum aestivum (wheat) cultivar Dongmai 12 assessed as 1000-grain weight at 225 g ai/h applied at booting stage of crop (reference value: 42.6 g); assay type: organism-based; conditions: in vivo, other
Triticum aestivum [6] = test: Toxicity against Winter Triticum aestivum (wheat) cultivar Dongmai 12 assessed as spike numbers at 900 g ai/h applied at booting stage of crop (reference value: 482.4/m'2); assay type: organism-based; conditions: in vivo, other
Triticum aestivum [7] = test: Toxicity against Winter Triticum aestivum (wheat) cultivar Dongmai 12 assessed as plant height at 900 g ai/h applied at booting stage of crop (reference value: 72.7 cm); assay type: organism-based; conditions: in vivo, other
Triticum aestivum [8] = test: Toxicity against Winter Triticum aestivum (wheat) cultivar Dongmai 12 assessed as spike numbers at 225 g ai/h applied at 2-tillering stage of crop in winter (reference value: 482.4/m'2); assay type: organism-based; conditions: in vivo, other
Descurainia sophia [9] = test: Herbicidal activity against Descurainia sophia in Wheat cultivar Dongmai 12 field assessed as decrease in plant number applied during late tillering stage of winter wheat at 525 g ai/h measured after 45 days under field trials; assay type: functional, organism-based
Triticum aestivum [10] = test: Toxicity against Winter Triticum aestivum (wheat) cultivar Dongmai 12 assessed as 1000-grain weight at 450 g ai/h applied at booting stage of crop (reference value: 42.6 g); assay type: organism-based; conditions: in vivo, other
Triticum aestivum [11] = test: Toxicity against Winter Triticum aestivum (wheat) cultivar Dongmai 12 assessed as spike numbers at 450 g ai/h applied at late tillering stage of crop in spring (reference value: 482.4/m'2); assay type: organism-based; conditions: in vivo, other
Triticum aestivum [12] = test: Toxicity against Winter Triticum aestivum (wheat) cultivar Dongmai 12 assessed as spike numbers at 900 g ai/h applied at late tillering stage of crop in spring (reference value: 482.4/m'2); assay type: organism-based; conditions: in vivo, other
Amaranthus retroflexus = test: Herbicidal activity against Amaranthus retroflexus assessed as decrease in biomass treated at 4-5 leaf stage measured after 14 days under greenhouse trials; assay type: functional
Triticum aestivum [13] = test: Toxicity against Winter Triticum aestivum (wheat) cultivar Dongmai 12 assessed as spike numbers at 450 g ai/h applied at 3-leaf stage of crop (reference value: 482.4/m'2); assay type: organism-based; conditions: in vivo, other
Triticum aestivum [14] = test: Toxicity against Winter Triticum aestivum (wheat) cultivar Dongmai 12 assessed as abnormal ear formation at 525 g ai/h; assay type: organism-based; conditions: in vivo
Triticum aestivum [15] = test: Toxicity against Winter Triticum aestivum (wheat) cultivar Dongmai 12 assessed as plant height at 225 g ai/h applied at late tillering stage of crop in spring (reference value: 72.7 cm); assay type: organism-based; conditions: in vivo, other
Triticum aestivum [16] = test: Toxicity against Winter Triticum aestivum (wheat) cultivar Dongmai 12 assessed as 1000-grain weight at 900 g ai/h applied at 3-leaf stage of crop (reference value: 42.6 g); assay type: organism-based; conditions: in vivo, other
Triticum aestivum [17] = test: Toxicity against Winter Triticum aestivum (wheat) cultivar Dongmai 12 assessed as 1000-grain weight at 900 g ai/h applied at booting stage of crop (reference value: 42.6 g); assay type: organism-based; conditions: in vivo, other
Triticum aestivum [18] = test: Toxicity against Winter Triticum aestivum (wheat) cultivar Dongmai 12 assessed as plant height at 450 g ai/h applied at late tillering stage of crop in spring (reference value: 72.7 cm); assay type: organism-based; conditions: in vivo, other
Descurainia sophia [19] = test: Herbicidal activity against Descurainia sophia in Wheat cultivar Dongmai 12 field assessed as decrease in biomass applied during late tillering stage of winter wheat at 525 g ai/h measured after 45 days under field trials; assay type: functional, organism-based
Triticum aestivum [20] = test: Toxicity against Winter Triticum aestivum (wheat) cultivar Dongmai 12 assessed as 1000-grain weight at 900 g ai/h applied at late tillering stage of crop in spring (reference value: 42.6 g); assay type: organism-based; conditions: in vivo, other
Triticum aestivum [21] = test: Toxicity against Winter Triticum aestivum (wheat) cultivar Dongmai 12 assessed as plant height at 225 g ai/h applied at 2-tillering stage of crop in winter (reference value: 72.7 cm); assay type: organism-based; conditions: in vivo, other
Capsella bursa-pastoris [22] = test: Herbicidal activity against Capsella bursa-pastoris in wheat cultivar lifeng 703 field assessed as decrease in biomass applied during late tillering stage of winter wheatat 525 g ai/h measured after 45 days under field trials; assay type: functional, organism-based
Capsella bursa-pastoris [23] = test: Herbicidal activity against Capsella bursa-pastoris in wheat cultivar lifeng 703 field assessed as decrease in plant number applied during late tillering stage of winter wheatat 525 g ai/h measured after 45 days under field trials; assay type: functional, organism-based
Descurainia sophia [24] = test: Herbicidal activity against Descurainia sophia in Wheat cultivar lifeng 703 field assessed as decrease in plant number applied during late tillering stage of winter wheat at 525 g ai/h measured after 45 days under field trials; assay type: functional, organism-based
Myosoton aquaticum = test: Herbicidal activity against Myosoton aquaticum assessed as decrease in biomass treated at four to five-leaf stage measured after 14 days under greenhouse trials; assay type: functional

O=C(O)COc1ccc(Cl)cc1Cl [2,4-DICHLOROPHENOXYACETIC ACID]
Activity (Triticum aestivum [1]): 38.8 g
Activity (Triticum aestivum [2]): 361.5 /m2
Activity (Triticum aestivum [3]): 5.6 tons/ha
Activity (Triticum aestivum [4]): 66 cm
Activity (Triticum aestivum [5]): 42.5 g
Activity (Triticum aestivum [6]): 474 /m2
Activity (Triticum aestivum [7]): 70.5 cm
Activity (Triticum aestivum [8]): 478.5 /m2
inhibition (Descurainia sophia [9]): Active
Activity (Triticum aestivum [10]): 42.5 g
Activity (Triticum aestivum [11]): 480 /m2
Activity (Triticum aestivum [12]): 480 /m2
ED50 (Amaranthus retroflexus): 74.1 gAi/ha
Activity (Triticum aestivum [13]): 366 /m2
Activity (Triticum aestivum [14]): Non-toxic
Activity (Triticum aestivum [15]): 73.2 cm
Activity (Triticum aestivum [16]): 37.5 g
Activity (Triticum aestivum [17]): 41.7 g
Activity (Triticum aestivum [18]): 72 cm
inhibition (Descurainia sophia [19]): Active
Activity (Triticum aestivum [20]): 42.2 g
Activity (Triticum aestivum [21]): 72 cm
inhibition (Capsella bursa-pastoris [22]): Active
inhibition (Capsella bursa-pastoris [23]): Active
inhibition (Descurainia sophia [24]): Active
ED50 (Myosoton aquaticum): 60.2 gAi/ha
